Data: patent US20100016285A1, “HETEROCYCLIDENE-N-(ARYL) ACETAMIDE DERIVATIVE” (MOCHIDA PHARMACEUTICAL CO., LTD., priority 2007, published 2010)

Target: T1, human TRPV1 (Homo sapiens, UniProt Q8NER1)
T1 construct: expressed in transfected cells; host or cells: CHO-K1 cells, pCAGGS vector, clones selected by limiting dilution
Assay: Capsaicin-induced Ca influx in transformed CHO cells, FDSS-6000 (b-1), A2 value
Type: cell-based
Conditions: concentration shifting the capsaicin concentration-reaction curve two times rightward; CHO cells expressing TRPV1
Source text: (1) Measurement of Capsaicin-Induced Ca Influx in a Transformed CHO Cell Line Expressing Human TRPV1
(a) Establishment of a Transformed CHO Cell Line Expressing Human and Rat TRPV1
Human and rat vanilloid receptor 1 (hTRPV1 and rTRPV1) cDNA was cloned from human brain and rat dorsal root ganglion, respectively. The cloned TRPV1 cDNA was incorporated in a pCAGGS vector. The vector was introduced to a CHO-K1 cell line, thus performing transformation. Clones obtained by limiting dilution were stimulated with capsaicin. Clones with a high responsiveness were selected using an increase in the Ca concentration as an indicator. The selected clones were used for the following experiment.
(b-1) Measurement of Ca Influx using FDSS-6000
The transformed CHO cells expressing human or rat TRPV1 were seeded in a 96-well plate (with black walls and transparent bottoms, manufactured by Greiner) at a density of 40,000 cells per well. The cells were cultured at 37° C. in 5% CO2 atmosphere for one night. A loading solution of FLIPR Calcium 3 assay kit (manufactured by Molecular Devices Corporation) containing 2.5 mmol/L of probenecid was then added to each of the wells in the same amount as the culture medium, and the cells were cultured at 37° C. for 60 minutes. For three minutes after the cells were stimulated with capsaicin (1 nmol/L to 1 μmol/L), the change of the intracellular Ca concentration was measured using FDSS-6000 (λex: 480 nm, λem: […], manufactured by Hamamatsu Photonics K.K.). The integrated values of the increase rate of the intracellular Ca concentration were calculated for a group treated with the compounds of the present invention and a group treated with a vehicle, thus allowing capsaicin concentration-reaction curves to be obtained. A concentration (A2 value) of each of the compounds of the present invention, at which the capsaicin concentration-reaction curve obtained when the cells were treated with the vehicle was shifted two times rightward, was calculated. The inhibitory effects of the test compounds were compared using this value as an indicator.

T1 sequence (Q8NER1 whole entry): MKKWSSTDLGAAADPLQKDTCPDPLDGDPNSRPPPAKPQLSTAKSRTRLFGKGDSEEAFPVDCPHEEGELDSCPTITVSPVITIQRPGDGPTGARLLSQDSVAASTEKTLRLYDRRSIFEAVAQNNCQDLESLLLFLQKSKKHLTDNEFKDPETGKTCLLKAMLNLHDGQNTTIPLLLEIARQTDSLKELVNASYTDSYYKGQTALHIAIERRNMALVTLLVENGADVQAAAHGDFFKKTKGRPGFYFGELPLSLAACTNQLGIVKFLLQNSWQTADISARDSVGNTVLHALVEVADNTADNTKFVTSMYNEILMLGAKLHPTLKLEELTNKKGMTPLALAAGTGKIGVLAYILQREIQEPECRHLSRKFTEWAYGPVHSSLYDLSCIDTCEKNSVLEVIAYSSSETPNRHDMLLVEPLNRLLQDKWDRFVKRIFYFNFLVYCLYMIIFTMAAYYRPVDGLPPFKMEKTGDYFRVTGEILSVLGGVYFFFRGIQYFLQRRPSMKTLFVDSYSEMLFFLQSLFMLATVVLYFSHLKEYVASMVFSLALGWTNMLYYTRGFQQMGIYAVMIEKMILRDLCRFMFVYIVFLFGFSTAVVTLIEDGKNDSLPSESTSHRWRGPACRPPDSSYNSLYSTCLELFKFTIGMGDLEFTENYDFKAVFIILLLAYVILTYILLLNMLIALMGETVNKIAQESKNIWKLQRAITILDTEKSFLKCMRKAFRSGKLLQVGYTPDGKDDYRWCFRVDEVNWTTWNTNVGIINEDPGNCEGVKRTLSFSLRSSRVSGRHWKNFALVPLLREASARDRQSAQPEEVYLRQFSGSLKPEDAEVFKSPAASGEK

| SMILES | A2 value |
| --- | --- |
| CO[C@@H]1CCN(C2Cc3ccc(NC(=O)/C=C4\CCCOc5cc(C(F)(F)F)ccc54)cc3NC2=O)C1 (stereo partly drawn) [EXAMPLE 56, (E)-2-(8-trifluoromethyl-3,4-dihydrobenzo[b]oxepin-5(2H)-ylidene)-N-(3-((3S)-methoxypyrrolidin-1-yl)-3,4-dihydro-2(1H)-quinolinon-7-yl)acetamide] | A (A2 value of less than 100 nM) |
| CN1CC(=O)Nc2cc(NC(=O)/C=C3\CCCOc4cc(C(F)(F)F)ccc43)ccc21 [EXAMPLE 8, (E)-2-(8-trifluoromethyl-3,4-dihydrobenzo[b]oxepin-5 (2H)-ylidene)-N-(4-methyl-3,4-dihydro-2(1H)-quinoxalinon-7-yl)acetamide] | A (A2 value of less than 100 nM) |
| CN1C(=O)CCc2ccc(NC(=O)/C=C3\CC(C)(C)Oc4cc(C(F)(F)F)ccc43)cc21 [EXAMPLE 25, (E)-2-(7-trifluoromethyl-2,2-dimethylchroman-4-ylidene)-N-(1-methyl-3,4-dihydro-2(1H)-quinolinon-7-yl)acetamide] | A (A2 value of less than 100 nM) |
| O=C(/C=C1\CCCOc2cc(C(F)(F)F)ccc21)Nc1ccc(OCCCO)c2c1CCC(=O)N2 [EXAMPLE 37, (E)-2-(8-trifluoromethyl-3,4-dihydrobenzo[b]oxepin-5(2H)-ylidene)-N-(8-(3-hydroxypropoxy)-3,4-dihydro-2(1H)-quinolinon-5-yl)acetamide] | A (A2 value of less than 100 nM) |
| CN1CC(=O)Nc2cccc(NC(=O)/C=C3\CCCOc4cc(C(F)(F)F)ccc43)c21 [EXAMPLE 22, (E)-2-(8-trifluoromethyl-3,4-dihydrobenzo[b]oxepin-5(2H)-ylidene)-N-(3,4-dihydro-4-methyl-2 (1H)-quinoxalinon-5-yl)acetamide] | A (A2 value of less than 100 nM) |
| O=C(/C=C1\CCCOc2cc(C(F)(F)F)ccc21)Nc1ccc2c(c1)NC(=O)CS2 [Example 4, (E)-2-(8-trifluoromethyl-3,4-dihydrobenzo[b]oxepin-5(2H)-ylidene)-N-(2H-benzo[1,4]thiazin-3(4H)-on-6-yl)acetamide] | A (A2 value of less than 100 nM) |
| O=C(/C=C1\CCCOc2cc(C(F)(F)F)ccc21)Nc1cccc2c1CCC(=O)N2CCO [EXAMPLE 19, (E)-2-(8-trifluoromethyl-3,4-dihydrobenzo[b]oxepin-5(2H)-ylidene)-N-(1-(2-hydroxyethyl)-3,4-dihydro-2(1H)-quinolinon-5-yl)acetamide] | A (A2 value of less than 100 nM) |
| CN(C1CCOCC1)C1Cc2ccc(NC(=O)/C=C3\CCCOc4cc(C(F)(F)F)ccc43)cc2NC1=O (stereo not shown) [EXAMPLE 57, (E)-2-(8-trifluoromethyl-3,4-dihydrobenzo[b]oxepin-5(2H)-ylidene)-N-(3-(N-methyl-N-(4-tetrahydropyranyl)amino)-3,4-dihydro-2(1H)-quinolinon-7-yl)acetamide] | B (A2 value of 100 nM or more) |
| CC1(C)Oc2ccc(NC(=O)/C=C3\CCCOc4cc(C(F)(F)F)ccc43)cc2NC1=O [Example 1, (E)-2-(8-trifluoromethyl-3,4-dihydrobenzo[b]oxepin-5(2H)-ylidene)-N-(2,2-dimethyl-4H-benzo[1,4]oxazin-3-on-6-yl)acetamide] | A (A2 value of less than 100 nM) |
| O=C(/C=C1\CCCOc2cc(C(F)(F)F)ccc21)Nc1ccc2c(c1)NC(=O)N(Cc1ccccc1)C2 [EXAMPLE 38, (E)-2-(8-trifluoromethyl-3,4-dihydrobenzo[b]oxepin-5(2H)-ylidene)-N-(3-benzyl-3,4-dihydro-2(1H)-quinazolinon-7-yl)acetamide] | A (A2 value of less than 100 nM) |
| O=C(/C=C1\CCCOc2cc(C(F)(F)F)ccc21)Nc1ccc2c(c1)NC(=O)C(N1CC[C@@H](O)C1)C2 (stereo partly drawn) [EXAMPLE 48, (E)-2-(8-trifluoromethyl-3,4-dihydrobenzo[b]oxepin-5(2H)-ylidene)-N-(3-((3S)-hydroxypyrrolidin-1-yl)-3,4-dihydro-2(1H)-quinolinon-7-yl)acetamide] | A (A2 value of less than 100 nM) |
| O=C1CNc2cccc(NC(=O)/C=C3\CCCOc4cc(C(F)(F)F)ccc43)c2C1 [EXAMPLE 36, (E)-2-(8-trifluoromethyl-3,4-dihydrobenzo[b]oxepin-5(2H)-yliden)-N-(3-oxo-1,2,3,4-tetrahydroquinolin-5-yl)acetamide] | A (A2 value of less than 100 nM) |
| O=C(/C=C1\CCCOc2cc(C(F)(F)F)ccc21)Nc1ccc2c(c1)NC(=O)OC2 [EXAMPLE 12, (E)-2-(8-trifluoromethyl-3,4-dihydrobenzo[b]oxepin-5(2H)-ylidene)-N-(1,4-dihydro-2H-3,1-benzoxadin-2-on-7-yl)acetamide] | A (A2 value of less than 100 nM) |
| O=C(/C=C1\CCCOc2cc(C(F)(F)F)ccc21)Nc1cccc2c1OCC(=O)N2 [EXAMPLE 20, (E)-2-(8-trifluoromethyl-3,4-dihydrobenzo[b]oxepin-5(2H)-ylidene)-N-(2H-1,4-benzoxazin-3(4H)-on-8-yl)acetamide] | A (A2 value of less than 100 nM) |
| CC1(C)Cc2ccc(NC(=O)/C=C3\CCCOc4cc(C(F)(F)F)ccc43)cc2NC1=O [EXAMPLE 29, (E)-2-(8-trifluoromethyl-3,4-dihydrobenzo[b]oxepin-5(2H)-ylidene)-N-(3,3-dimethyl-3,4-dihydro-2(1H)-quinolinon-7-yl)acetamide] | A (A2 value of less than 100 nM) |
| CC1Oc2ccc(NC(=O)/C=C3\CCCOc4cc(C(F)(F)F)ccc43)cc2NC1=O (stereo not shown) [Example 2, (E)-2-(8-trifluoromethyl-3,4-dihydrobenzo[b]oxepin-5(2H)-ylidene)-N-(2-methyl-4H-benzo[1,4]oxazin-3-on-6-yl)acetamide] | A (A2 value of less than 100 nM) |
| O=C(/C=C1\CCCOc2cc(C(F)(F)F)ccc21)Nc1ccc2cc(N3CCOCC3)c(=O)[nH]c2c1 [Example 58, (E)-2-(8-trifluoromethyl-3,4-dihydrobenzo[b]oxepin-5(2H)-ylidene)-N-(3-(4-morpholinyl)-2(1H)-quinolinon-7-yl)acetamide] | A (A2 value of less than 100 nM) |
| O=C(/C=C1\CCCOc2cc(C(F)(F)F)ccc21)Nc1cccc2c1NCC(=O)N2 [EXAMPLE 21, (E)-2-(8-trifluoromethyl-3,4-dihydrobenzo[b]oxepin-5(2H)-ylidene)-N-(3,4-dihydro-2 (1H)-quinoxalinon-5-yl)acetamide] | A (A2 value of less than 100 nM) |
| CN1c2ccc(NC(=O)/C=C3\CCCOc4cc(C(F)(F)F)ccc43)cc2NC(=O)C1(C)CO (stereo not shown) [EXAMPLE 41, (E)-2-(8-trifluoromethyl-3,4-dihydrobenzo[b]oxepin-5(2H)-ylidene)-N-(3-hydroxymethyl-3,4-dimethyl-3,4-dihydro-2(1H)-quinoxalinon-7-yl)acetamide] | A (A2 value of less than 100 nM) |
| O=C(/C=C1\CCCOc2cc(C(F)(F)F)ccc21)Nc1ccc2c(c1)NC(=O)C[S+]2[O-] (stereo not shown) [Example 5, (E)-2-(B-trifluoromethyl-3,4-dihydrobenzo[b]oxepin-5(2H)-ylidene)-N-(1-oxo-2H-benzo[1,4]thiazin-3(4H)-on-6-yl)acetamide] | B (A2 value of 100 nM or more) |
| O=C(/C=C1\CCCOc2cc(C(F)(F)F)ccc21)Nc1ccc2c(c1)NC(=O)C(N1CC[C@@H](F)C1)C2 (stereo partly drawn) [EXAMPLE 47, (E)-2-(8-trifluoromethyl-3,4-dihydrobenzo[b]oxepin-5(2H)-ylidene)-N-(3-((3S)-fluoropyrrolidin-1-yl)-3,4-dihydro-2(1H)-quinolinon-7-yl)acetamide] | A (A2 value of less than 100 nM) |
| COCCN(C)C1Cc2ccc(NC(=O)/C=C3\CCCOc4cc(C(F)(F)F)ccc43)cc2NC1=O (stereo not shown) [EXAMPLE 45, (E)-2-(8-trifluoromethyl-3,4-dihydrobenzo[b]oxepin-5-(2H)-ylidene)-N-(3-(N-methyl-N-(2-methoxyethyl)amino)-3,4-dihydro-2(1H)-quinolinon-7-yl)acetamide] | A (A2 value of less than 100 nM) |
| CC1(C)C/C(=C\C(=O)Nc2ccc3c(c2)NC(=O)CC3)c2ccc(C(F)(F)F)cc2O1 [EXAMPLE 24, (E)-2-(7-trifluoromethyl-2,2-dimethylchroman-4-ylidene)-N-(3,4-dihydroquinolin-2(1H)-on-7-yl)acetamide] | A (A2 value of less than 100 nM) |
| O=C(/C=C1\CCCOc2cc(C(F)(F)F)ccc21)Nc1ccc2c(c1)NC(=O)CN2 [Example 7, (E)-2-(8-trifluoromethyl-3,4-dihydrobenzo[b]oxepin-5(2H)-ylidene)-N-(3,4-dihydro-2(1H)-quinoxalinon-7-yl)acetamide] | A (A2 value of less than 100 nM) |
| O=C(/C=C1\CCCOc2cc(C(F)(F)F)ccc21)Nc1ccc2c(c1)NC(=O)C(CO)C2 (stereo not shown) [EXAMPLE 28, (E)-2-(8-trifluoromethyl-3,4-dihydrobenzo[b]oxepin-5(2H)-ylidene)-N-(3-hydroxymethyl-3,4-dihydro-2(1H)-quinolinon-7-yl)acetamide] | A (A2 value of less than 100 nM) |
